Source: US20240174669A1, “CRYSTALLINE FORMS OF A PARP1 INHIBITOR” (XinThera, Inc., priority 2022, published 2024)
≈ marks a conversion by molar mass, not a printed value. Like-named read-outs stand apart in the source and are kept apart here.

How the values were obtained:
Format in all cases: physicochemical
[1] = Solubility in bio-relevant media, water and pH buffers (HPLC of filtrate, XRPD of filter cake); details: for solubility at 0.5 h / solubility at 2 h / solubility at 24 h / solubility / solubility at 4 h / solubility at 8 h: thermodynamic from solid; for solubility at 0.5 h: read-out: Solubility (mg/mL) 0.5 h; for solubility at 2 h: read-out: Solubility (mg/mL) 2 h; for solubility at 24 h: read-out: Solubility (mg/mL) 24 h; for Solubility (mg/mL) 0.5 h / Solubility (mg/mL) 2 h / Solubility (mg/mL) 4 h / Solubility (mg/mL) 8 h: listed as Freebase Form II (Lot #2); for solubility at 4 h: read-out: Solubility (mg/mL) 4 h; for solubility at 8 h: read-out: Solubility (mg/mL) 8 h
Description: About 15 mg of freebase Form II was weighed into sample vials, and then 3 mL of each media was added to make suspensions, respectively. […] Duplicated samples were prepared for each media.
HPLC analysis was performed with an Agilent HPLC 1260 series instrument.

[2] = Solubility in 0.5% MC and 0.5% MC pH 3 citrate buffer; details: for solubility: thermodynamic from solid
Description: Solubility of freebase Form II was first measured in 0.5% MC (400 cPs) and 0.5% MC (400 cPs) pH 3 citrate buffer. About 5 mg of Form II (Lot#1) was stirred in 1 mL of media at RT for ˜2 hours. The suspension was filtered, with filtrates analyzed by HPLC and remaining solids tested by XRPD. […] Therefore, 0.5% MC pH 3 buffer was selected for suspension formulation stability study.

[3] = Suspension formulation stability in 0.5% MC pH 3 buffer
Description: About 9 mg of free base Form II (Lot#1) was added into 0.3 mL of 0.5% MC pH 3 buffer, and stirred at RT for 30 min to make a suspension with 30 mg/mL drug loading (Day 0 sample). The suspension samples in vials, prepared at the same time, were kept at RT for 3 or 7 days. At each time point, the whole suspension in a vial was dissolved in 8.7 mL water/ACN (1:1, v/v) and then was analyzed by HPLC. Sedimentation of suspension was checked by visual observation, and the solids in another vial were tested by PLM and XRPD.

Solid-state stability = assay: Solid-state stability
Description: Solid-state stability of free base Form II (Lot#1) was conducted at 60° C. (capped) and 40° C./75% RH (open) for 7 days. The stability sample was dissolved in diluent to prepare solution at ˜0.5 mg/mL for HPLC purity analysis. Solid samples were analyzed by XRPD to check the crystalline form. […] (capped) and 40° C./75% RH (open) after 7 days.

[4] = DVS moisture sorption (hygroscopicity)
Description: Moisture sorption/desorption data were collected on a DVS instrument. About 75 mg of a sample was placed into a tared sample chamber and automatically weighed. The anhydrate was analyzed with the setting parameters in the table below.

[5] = 0.5% MC pH 3 buffer (100 mM citrate), RT, ~2 hours
[6] = 0.5% MC pH 3 citrate buffer, up to 7 days

SMILES: CNC(=O)c1ccc(N2CCN(Cc3cnc4cc(C5CC5)c(=O)[nH]c4c3)CC2)cn1 [Freebase Form II, 5-(4-((7-cyclopropyl-6-oxo-5,6-dihydro-1,5-naphthyridin-3-yl)methyl)piperazin-1-yl)-N-methylpicolinamide]
- solubility at 0.5 h ([1]; FaSSIF, 37 °C, pH 6.45, fassif, FaSSIF, initial pH 6.45, 37° C., 800 rpm, 0.5 h): 0.016 mg/mL (≈ 38.2 µM)
- solubility at 2 h ([1]; FaSSIF, 37 °C, pH 6.45, fassif, FaSSIF, initial pH 6.45, 37° C., 800 rpm, 2 h): 0.025 mg/mL (≈ 59.7 µM)
- solubility at 24 h ([1]; FaSSIF, 37 °C, pH 6.45, fassif, FaSSIF, initial pH 6.45, 37° C., 800 rpm): 0.028 mg/mL (≈ 66.9 µM)
- solubility ([1]; FaSSIF, 37 °C): ~20 µg/mL (≈ 47.8 µM)
- Solubility (mg/mL) 0.5 h ([1]; FaSSIF, initial pH 6.50, 0.5 h): 0.015 mg/mL (≈ 35.8 µM)
- Solubility (mg/mL) 2 h ([1]; FaSSIF, initial pH 6.50, 2 h): 0.015 mg/mL (≈ 35.8 µM)
- Solubility (mg/mL) 4 h ([1]; FaSSIF, initial pH 6.50, 4 h): 0.017 mg/mL (≈ 40.6 µM)
- Solubility (mg/mL) 8 h ([1]; FaSSIF, initial pH 6.50, 8 h): 0.016 mg/mL (≈ 38.2 µM)
- solubility at 0.5 h ([1]; FaSSIF, pH 6.5, fassif, FaSSIF, initial pH 6.50, 0.5 h): 0.016 mg/mL (≈ 38.2 µM)
- solubility at 2 h ([1]; FaSSIF, pH 6.5, fassif, FaSSIF, initial pH 6.50, 2 h): 0.017 mg/mL (≈ 40.6 µM)
- solubility at 4 h ([1]; FaSSIF, pH 6.5, fassif, FaSSIF, initial pH 6.50, 4 h): 0.021 mg/mL (≈ 50.2 µM)
- solubility at 8 h ([1]; FaSSIF, pH 6.5, fassif, FaSSIF, initial pH 6.50, 8 h): 0.023 mg/mL (≈ 55 µM)
- solubility at 0.5 h ([1]; FeSSIF, 37 °C, pH 4.89, fessif, FeSSIF, initial pH 4.89, 37° C., 800 rpm, 0.5 h): 0.087 mg/mL (≈ 208 µM)
- solubility at 2 h ([1]; FeSSIF, 37 °C, pH 4.89, fessif, FeSSIF, initial pH 4.89, 37° C., 800 rpm, 2 h): 0.101 mg/mL (≈ 241 µM)
- solubility at 24 h ([1]; FeSSIF, 37 °C, pH 4.89, fessif, FeSSIF, initial pH 4.89, 37° C., 800 rpm): 0.12 mg/mL (≈ 287 µM)
- solubility ([1]; FeSSIF, 37 °C, pH 4.98, fessif): ~100 µg/mL (≈ 239 µM)
- solubility at 8 h ([1]; FeSSIF, 37 °C, pH 4.98, fessif, FeSSIF, initial pH 4.98, 8 h): 0.105 mg/mL (≈ 251 µM)
- Solubility (mg/mL) 0.5 h ([1]; FeSSIF, initial pH 4.98, 0.5 h): 0.087 mg/mL (≈ 208 µM)
- Solubility (mg/mL) 2 h ([1]; FeSSIF, initial pH 4.98, 2 h): 0.089 mg/mL (≈ 213 µM)
- Solubility (mg/mL) 4 h ([1]; FeSSIF, initial pH 4.98, 4 h): 0.096 mg/mL (≈ 229 µM)
- Solubility (mg/mL) 8 h ([1]; FeSSIF, initial pH 4.98, 8 h): 0.101 mg/mL (≈ 241 µM)
- solubility at 0.5 h ([1]; FeSSIF, pH 4.98, fessif, FeSSIF, initial pH 4.98, 0.5 h): 0.085 mg/mL (≈ 203 µM)
- solubility at 2 h ([1]; FeSSIF, pH 4.98, fessif, FeSSIF, initial pH 4.98, 2 h): 0.09 mg/mL (≈ 215 µM)
- solubility at 4 h ([1]; FeSSIF, pH 4.98, fessif, FeSSIF, initial pH 4.98, 4 h): 0.097 mg/mL (≈ 232 µM)
- solubility at 0.5 h ([1]; SGF, 37 °C, pH 1.27, simulated gastric fluid, SGF, initial pH 1.27, 37° C., 800 rpm, 0.5 h): > 5 mg/mL
- solubility at 2 h ([1]; SGF, 37 °C, pH 1.27, simulated gastric fluid, SGF, initial pH 1.27, 37° C., 800 rpm, 2 h): > 5 mg/mL
- solubility at 24 h ([1]; SGF, 37 °C, pH 1.27, simulated gastric fluid, SGF, initial pH 1.27, 37° C., 800 rpm): > 5 mg/mL
- solubility ([1]; SGF, 37 °C, simulated gastric fluid): > 5000 µg/mL
- crystalline form during solubility test (XRPD of filter cake) ([1]; all media, up to 24 hours): remained unchanged
- solubility ([1]; pH 5.0 buffer, 37 °C, pH 5, aqueous buffer): ~50 µg/mL (≈ 119 µM)
- solubility at 0.5 h ([1]; pH 5.0 buffer, 37 °C, pH 5, aqueous buffer, pH 5.0 buffer, initial pH 4.94, 37° C., 800 rpm, 0.5 h): 0.045 mg/mL (≈ 108 µM)
- solubility at 2 h ([1]; pH 5.0 buffer, 37 °C, pH 5, aqueous buffer, pH 5.0 buffer, initial pH 4.94, 37° C., 800 rpm, 2 h): 0.05 mg/mL (≈ 119 µM)
- solubility at 24 h ([1]; pH 5.0 buffer, 37 °C, pH 5, aqueous buffer, pH 5.0 buffer, initial pH 4.94, 37° C., 800 rpm): 0.061 mg/mL (≈ 146 µM)
- solubility ([1]; pH 6.5 buffer, 37 °C, pH 6.5, aqueous buffer): ~10 µg/mL (≈ 23.9 µM)
- solubility at 0.5 h ([1]; pH 6.5 buffer, 37 °C, pH 6.5, aqueous buffer, pH 6.5 buffer, initial pH 6.43, 37° C., 800 rpm, 0.5 h): 0.007 mg/mL (≈ 16.7 µM)
- solubility at 2 h ([1]; pH 6.5 buffer, 37 °C, pH 6.5, aqueous buffer, pH 6.5 buffer, initial pH 6.43, 37° C., 800 rpm, 2 h): 0.008 mg/mL (≈ 19.1 µM)
- solubility at 24 h ([1]; pH 6.5 buffer, 37 °C, pH 6.5, aqueous buffer, pH 6.5 buffer, initial pH 6.43, 37° C., 800 rpm): 0.01 mg/mL (≈ 23.9 µM)
- solubility at 0.5 h ([1]; water, 37 °C, pH 4.18, water, Water, initial pH 4.18, 37° C., 800 rpm, 0.5 h): 0.007 mg/mL (≈ 16.7 µM)
- solubility at 2 h ([1]; water, 37 °C, pH 4.18, water, Water, initial pH 4.18, 37° C., 800 rpm, 2 h): 0.008 mg/mL (≈ 19.1 µM)
- solubility at 24 h ([1]; water, 37 °C, pH 4.18, water, Water, initial pH 4.18, 37° C., 800 rpm): 0.01 mg/mL (≈ 23.9 µM)
- solubility ([1]; water, 37 °C): ~10 µg/mL (≈ 23.9 µM)
- solubility ([2]; 0.5% MC (400 cPs) pH 3 citrate buffer, pH 3, aqueous with cosolvent or surfactant or cyclodextrin, 0.5% MC pH 3 buffer (100 mM citrate), initial pH 3.0, RT, ~2 hours): 4500 µg/mL (≈ 10800 µM)
- solubility ([2]; 0.5% MC (400 cPs), aqueous with cosolvent or surfactant or cyclodextrin, 0.5% MC, RT, ~2 hours): < 10 µg/mL
- solubility ([2]; 0.5% MC (400 cPs), aqueous with cosolvent or surfactant or cyclodextrin, RT, ~2 hours): 6 µg/mL (≈ 14.3 µM)
- Filtrate Purity 254 nm [2, 5]: 99.25%
- XRPD of remaining solids [2, 5]: Unchanged
- form change (XRPD) ([2]; both media: 0.5% MC and 0.5% MC pH 3 citrate buffer): No form change was observed
- crystalline form in suspension [3, 6]: remained unchanged
- purity change in suspension [3, 6]: no purity decrease was observed
- Purity (area %, 220 nm) Initial ([3]; initial, before suspension): 99.25 area %
- sedimentation of suspension (visual observation) ([3]; kept at RT for 3 or 7 days, homogeneous again after swirling 1 min): Sedimentation was observed
- Purity (area %, 220 nm) Day 0 ([3]; suspension in 0.5% MC pH 3 buffer (100 mM citrate), 30 mg/mL, RT, Day 0): 99.30 area %
- Purity (area %, 220 nm) Day 3 ([3]; suspension in 0.5% MC pH 3 buffer (100 mM citrate), 30 mg/mL, RT, Day 3): 99.28 area %
- Purity (area %, 220 nm) Day 7 ([3]; suspension in 0.5% MC pH 3 buffer (100 mM citrate), 30 mg/mL, RT, Day 7): 99.26 area %
- Purity (area %) @7 D 40° C./75% RH (Solid-state stability; 40° C./75% RH (open), 7 days): 99.26 area %
- XRPD @7 D 40° C./75% RH (Solid-state stability; 40° C./75% RH (open), 7 days): Unchanged
- solid-state stability (Solid-state stability; 60° C. (capped) and 40° C./75% RH (open), after 7 days): physically and chemically stable
- Purity (area %) @7 D 60° C. (Solid-state stability; 60° C. (capped), 7 days): 99.25 area %
- XRPD @7 D 60° C. (Solid-state stability; 60° C. (capped), 7 days): Unchanged
- Purity (area %) Initial (Solid-state stability; initial): 99.26 area %
- crystalline form after DVS test [4]: remained unchanged
- hygroscopicity (DVS) [4]: non-hygroscopic
- water uptake (DVS) ([4]; at 80% RH, 25° C.): 0.19%
